Data: ChEMBL document CHEMBL1201862, “PubChem BioAssay data set” (2004)
Counter-ions that a name gives are not always drawn. The source made the active and inactive calls.

Tests used:
[1] = system: Vero; assay: cells; type: functional; settings: Chlorocebus sabaeus
[2] = molecular target: T1, Corticotropin-releasing factor receptor 2/Corticotropin-releasing factor-binding protein (Homo sapiens, UniProt P24387+Q13324); assay: Dose Response confirmation of uHTS hits for small molecule antagonists of the CRF-binding protein and CRF-R2 receptor complex.; type: functional; settings: read-out: IC50_Mean
T1 sequence (Q13324 whole entry): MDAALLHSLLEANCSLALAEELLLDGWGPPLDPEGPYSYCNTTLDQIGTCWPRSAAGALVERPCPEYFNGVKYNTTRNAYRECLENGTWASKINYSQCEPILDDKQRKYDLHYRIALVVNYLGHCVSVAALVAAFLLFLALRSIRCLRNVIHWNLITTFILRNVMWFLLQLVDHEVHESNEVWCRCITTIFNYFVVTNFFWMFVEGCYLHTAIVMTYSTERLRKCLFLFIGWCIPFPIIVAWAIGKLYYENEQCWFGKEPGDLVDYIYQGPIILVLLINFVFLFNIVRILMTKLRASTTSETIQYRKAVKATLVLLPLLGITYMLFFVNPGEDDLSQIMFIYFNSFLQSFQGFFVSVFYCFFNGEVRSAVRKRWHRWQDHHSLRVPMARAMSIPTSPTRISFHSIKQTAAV
T1 sequence (P24387 whole entry): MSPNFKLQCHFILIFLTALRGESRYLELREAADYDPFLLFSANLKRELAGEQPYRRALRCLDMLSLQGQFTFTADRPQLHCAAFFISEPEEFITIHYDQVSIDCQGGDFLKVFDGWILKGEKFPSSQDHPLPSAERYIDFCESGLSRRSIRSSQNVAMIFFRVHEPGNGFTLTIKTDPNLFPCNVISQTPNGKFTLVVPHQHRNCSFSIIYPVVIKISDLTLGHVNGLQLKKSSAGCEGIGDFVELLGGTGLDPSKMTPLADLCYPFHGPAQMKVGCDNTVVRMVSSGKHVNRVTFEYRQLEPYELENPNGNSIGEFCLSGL

[3] = molecular target: T1, Corticotropin-releasing factor receptor 2/Corticotropin-releasing factor-binding protein; assay: activators of CRF receptor 2 with binding protein – uHTS hits, confirmation (AID 602473); type: functional; settings: read-out: EC50_Mean
[4] = molecular target: T2, Protein skinhead-1 (Caenorhabditis elegans, UniProt P34707); type: functional
T2 sequence (P34707 whole entry): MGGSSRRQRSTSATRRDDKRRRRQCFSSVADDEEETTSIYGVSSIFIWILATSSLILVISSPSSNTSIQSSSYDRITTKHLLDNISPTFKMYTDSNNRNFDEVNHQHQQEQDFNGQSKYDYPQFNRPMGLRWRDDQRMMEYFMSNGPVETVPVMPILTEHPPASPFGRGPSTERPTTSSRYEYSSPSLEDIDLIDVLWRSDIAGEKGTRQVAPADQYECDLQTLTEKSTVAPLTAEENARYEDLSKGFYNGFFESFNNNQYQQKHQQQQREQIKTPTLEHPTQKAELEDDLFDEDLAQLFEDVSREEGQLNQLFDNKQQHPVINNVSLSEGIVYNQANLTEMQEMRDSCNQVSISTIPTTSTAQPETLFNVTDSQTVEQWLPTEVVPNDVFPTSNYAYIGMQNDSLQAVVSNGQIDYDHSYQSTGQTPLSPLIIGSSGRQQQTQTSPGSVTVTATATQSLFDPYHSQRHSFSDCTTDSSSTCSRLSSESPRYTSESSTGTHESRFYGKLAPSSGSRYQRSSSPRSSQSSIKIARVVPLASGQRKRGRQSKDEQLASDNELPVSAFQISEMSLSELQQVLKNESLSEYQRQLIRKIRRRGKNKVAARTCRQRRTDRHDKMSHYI

[5] = molecular target: T3, DNA repair protein RAD52 homolog (Homo sapiens, UniProt P43351); type: functional, biochemical
T3 sequence (P43351 whole entry): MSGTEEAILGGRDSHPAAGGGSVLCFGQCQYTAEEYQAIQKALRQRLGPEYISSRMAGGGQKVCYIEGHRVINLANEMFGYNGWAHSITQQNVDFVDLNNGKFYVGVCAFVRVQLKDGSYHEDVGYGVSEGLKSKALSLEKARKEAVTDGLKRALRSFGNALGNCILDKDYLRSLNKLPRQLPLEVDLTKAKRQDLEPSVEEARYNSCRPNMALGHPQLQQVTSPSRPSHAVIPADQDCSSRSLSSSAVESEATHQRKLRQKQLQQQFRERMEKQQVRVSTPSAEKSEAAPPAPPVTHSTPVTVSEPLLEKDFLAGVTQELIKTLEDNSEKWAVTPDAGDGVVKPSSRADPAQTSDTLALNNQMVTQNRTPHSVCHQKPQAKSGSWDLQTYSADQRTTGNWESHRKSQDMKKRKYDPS

[6] = molecular target: T4, Rac GTPase-activating protein 1 (Homo sapiens, UniProt Q9H0H5); assay: MgcRacGAP GTPase-activating activity inhibitors, confirmation, biochemical, ADP Hunter fluorescence, primary and confirmatory (AID 624330); type: functional
T4 sequence (Q9H0H5 whole entry): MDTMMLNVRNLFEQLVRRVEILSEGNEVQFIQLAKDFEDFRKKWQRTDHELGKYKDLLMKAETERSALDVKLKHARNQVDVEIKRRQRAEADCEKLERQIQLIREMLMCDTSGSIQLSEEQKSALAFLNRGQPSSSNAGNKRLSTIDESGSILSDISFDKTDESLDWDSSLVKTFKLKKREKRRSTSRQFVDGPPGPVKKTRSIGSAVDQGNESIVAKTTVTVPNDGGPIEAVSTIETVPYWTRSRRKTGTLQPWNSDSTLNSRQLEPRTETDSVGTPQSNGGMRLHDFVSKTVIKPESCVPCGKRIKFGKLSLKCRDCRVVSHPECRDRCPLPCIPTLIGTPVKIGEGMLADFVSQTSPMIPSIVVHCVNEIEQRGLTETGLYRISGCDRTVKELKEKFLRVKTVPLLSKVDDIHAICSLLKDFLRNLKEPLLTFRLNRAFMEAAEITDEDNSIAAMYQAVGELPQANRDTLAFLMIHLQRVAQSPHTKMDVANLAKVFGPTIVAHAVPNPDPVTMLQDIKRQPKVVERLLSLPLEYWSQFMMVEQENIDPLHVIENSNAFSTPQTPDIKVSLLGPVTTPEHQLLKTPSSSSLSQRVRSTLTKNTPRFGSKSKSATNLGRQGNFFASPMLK

[7] = molecular target: Paired box protein Pax-8 (Homo sapiens, UniProt Q06710); assay: inhibitors of PAX8-driven TPO luciferase reporter, dose response, RMG-I cells, cherry-pick (AID 687027); type: functional, cell-based;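 further: luciferase reporter driven by Pax8 target thyroperoxidase promoter measured by SteadyGlo luminescence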
Paired box protein Pax-8, sequence (Q06710 whole entry): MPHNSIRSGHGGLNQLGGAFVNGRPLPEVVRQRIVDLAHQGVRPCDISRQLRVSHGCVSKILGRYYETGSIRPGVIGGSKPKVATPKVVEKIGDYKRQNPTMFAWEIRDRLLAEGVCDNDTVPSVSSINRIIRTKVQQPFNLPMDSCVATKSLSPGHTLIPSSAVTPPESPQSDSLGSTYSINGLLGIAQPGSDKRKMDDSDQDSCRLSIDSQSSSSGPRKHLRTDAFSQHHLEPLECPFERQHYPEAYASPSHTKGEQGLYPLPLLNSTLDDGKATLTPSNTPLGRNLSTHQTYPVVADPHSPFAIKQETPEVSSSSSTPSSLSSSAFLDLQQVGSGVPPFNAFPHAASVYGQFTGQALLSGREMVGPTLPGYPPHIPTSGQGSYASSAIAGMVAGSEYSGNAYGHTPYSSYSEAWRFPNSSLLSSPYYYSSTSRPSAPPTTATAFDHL

[8] = NIH:OVCAR-3 ovarian cancer cell cytotoxicity, dose response, PAX8 inhibitor project, plate reader, dry powder samples (AID 743044); type: functional, cell-based
[9] = cytotoxicity in OVCAR8 ovarian cancer cells, dose response, PAX8 project, cell-based, plate reader, dry powder samples (AID 743197); type: functional; settings: OVCAR-8
[10] = system: Streptococcus sp. 'group A'; assay: growth inhibition of control SK(-) GAS strain, dose response, counter-screen for streptokinase expression inhibitor project, luminescence, kanamycin, BacTiterGlo, confirmation (AID 1900); type: functional, organism-based
[11] = molecular target: T5, Streptokinase A (Streptococcus pyogenes serotype M1, UniProt P10520); assay: S. pyogenes streptokinase expression inhibitors, potency, dose response, plasminogen activation absorbance, OD405 (AID 1914); type: functional, Streptococcus pyogenes M1 GAS;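 further: secreted streptokinase activity via plasminogen activation per viability signal from cell pellet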
T5 sequence (P10520 whole entry): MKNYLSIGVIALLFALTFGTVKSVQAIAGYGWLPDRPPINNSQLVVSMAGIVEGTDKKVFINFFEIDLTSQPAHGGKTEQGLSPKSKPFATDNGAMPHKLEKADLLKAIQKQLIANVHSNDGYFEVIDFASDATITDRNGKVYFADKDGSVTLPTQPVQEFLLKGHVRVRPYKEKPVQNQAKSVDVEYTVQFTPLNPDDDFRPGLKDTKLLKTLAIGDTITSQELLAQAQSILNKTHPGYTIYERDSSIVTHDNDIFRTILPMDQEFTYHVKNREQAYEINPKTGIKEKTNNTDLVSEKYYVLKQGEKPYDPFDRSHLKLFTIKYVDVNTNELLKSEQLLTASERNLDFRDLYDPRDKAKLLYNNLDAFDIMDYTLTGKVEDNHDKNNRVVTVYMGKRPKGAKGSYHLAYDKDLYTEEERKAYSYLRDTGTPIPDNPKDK

[12] = system: Streptococcus; assay: Group A Streptococcus viability loss, dose response, counter-screen for streptokinase expression inhibitor project, luminescence, BacTiterGlo (AID 1915); type: functional, organism-based;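 further: potency for reduction of bacterial viability or growth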
[13] = NIH-3T3 fibroblast cytotoxicity, dose response, cytotoxicity control, cell-based, fluorescence, Alamar Blue, secondary assay (AID 2327); type: functional;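 further: NIH-3T3 mouse fibroblasts cultured with fluconazole at 8 µg/mL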
[14] = C. albicans growth with fluconazole, confirmation, fluorescence, retest (AID 2467); type: functional, cell-based
[15] = cells; type: functional
[16] = inhibitors of HIV Env-driven cell fusion, dose response, cherry-pick (AID 652057); type: functional, cell-based
[17] = inhibitors of clade B AD8 Env fusion, dose response, cell-based, cherry-pick (AID 652062); type: functional;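 further: luciferase signal from cell-cell fusion driven by HIV-1 clade B AD8 Env; potency is for inhibitors of fusion seen as a drop in luminescence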

SMILES: Cc1ccc(/C=N/NC(=S)Nc2cccc(S(=O)(=O)N(C)C)c2)o1
- CC50 [1]: > 25 µM (active)
- IC50 [2]: > 47.1 µM (inactive)
- EC50 [3]: > 53 µM (inactive)

SMILES: Fc1cc(Cl)cc2ccc(-c3ccccc3)nc12
- IC50 [4]: 45.2 µM (active)

SMILES: Cc1cc(N2CCN(C)CC2)nc2ccc(NC(=S)N3CCCCC3)cc12
- AC50 [5]: 10.9 µM (active)

SMILES: Cn1ccs/c1=N\C(=O)c1ccc(OC(F)(F)F)cc1
- IC50 [4]: 29.8 µM (active)

SMILES: CC[N+](CC)(CC)CCCCOc1ccc2c(c1)C(=O)c1cc(OCCCC[N+](CC)(CC)CC)ccc1-2
- IC50 [6]: 221 µM (active)
- AC50 [5]: 0.506 µM (active)

SMILES: COC(=O)CN1C(=S)N(c2ccc(OC)cc2)C(=O)/C1=C/c1ccc(N2CCOCC2)cc1
- IC50 [4]: > 100 µM (inactive)

SMILES: CN/C(=C\[N+](=O)[O-])NCCSCc1ccc(CN(C)C)o1 [RANITIDINE HYDROCHLORIDE]
- AC50 [5]: 11.8 µM (active)

SMILES: Cc1ccc(OC(=O)N(C)C[C@@H]2OCc3ccccc3-c3c(n(C)c4ccccc34)C(=O)N([C@@H](C)CO)C[C@H]2C)cc1
- AC50 [7]: 4.78 µM (active)
- AC50 [8]: 39.9 µM (active)
- AC50 [9]: > 70 µM (inactive)

SMILES: CN1CCN(C2Cc3ccc(Cl)cc3Sc3ccc(F)cc32)CC1 (stereo not given)
- EC50 [10]: 4.95 µM (active)
- EC50 [11]: > 150 µM (not active)
- EC50 [12]: 11.9 µM (active)
- AC50 [5]: 14.1 µM (active)

SMILES: Fc1ccc(-c2cnc(-c3cccs3)o2)cc1
- IC50 [4]: 24 µM (active)

SMILES: Cc1ccsc1C(=O)OCC(=O)Nc1nnc(-c2ccccc2)o1
- EC50 [13]: > 160 µM (inactive)
- EC50 [14]: 3.98 µM (active)
- IC50 [15]: 15.1 µM (active)

SMILES: CC(C)CC#Cc1ccc2c(c1)O[C@@H](CN(C)S(=O)(=O)c1ccc(F)cc1)[C@H](C)CN([C@@H](C)CO)S2(=O)=O
- AC50 [16]: 30.8 µM (active)
- AC50 [7]: 9.45 µM (active)
- AC50 [17]: 44.9 µM (active)
- AC50 [9]: 61 µM (active)
